Where “and” joins values, the source holds several entries; their conditions need not be identical. Equal entries are not always repeated.
What was measured:
[1] = tested on: oil palm fruit; settings: preharvest application to attached bunches; cited from earlier work
[2] = tested on: oil palm fruit; experiment: Field study of fruit abscission (cumulative loose fruit and loose mass) after a single bunch-directed preharvest spray; type: in vivo, oil palm (cross between Compact and Ghana); settings: for Cumulative Loose Mass / % Difference with UTC (Cumulative Loose Fruit) / % Difference with UTC (Cumulative Loose Mass) / Cumulative Loose Fruit: single spray 100 mL/bunch; for Cumulative Loose Mass / % Difference with UTC (Cumulative Loose Fruit) / % Difference with UTC (Cumulative Loose Mass): 14 days; for % Difference with UTC (Cumulative Loose Fruit) / % Difference with UTC (Cumulative Loose Mass): vs untreated control; for Cumulative Loose Fruit: counted for 14 days
Protocol: A study was conducted in a plantation in Costa Rica to compare the effects of single bunch-directed applications of: (1) untreated control (water sprayed); (2) AVG at 500 ppm (59.5 g) active ingredient (a.i.); (3) 20 ppm (2.4 g) a.i. of 1-MCP; (4) 67 ppm (8.0 g) a.i. of 1-MCP; and (5) 200 ppm (23.8 g) a.i. of 1-MCP. Total g a.i./ha for each treatment was calculated assuming 7 bunches per palm and 170 palms per ha. In this study, AVG and 1-MCP were provided in a formulation as AVG-HC1 and 1-MCP at concentrations of 20% and 1.3%, respectively.
For each treatment, 27 palms were randomly selected covering about 15 hectares. The variety of plants used was a cross between Compact and Ghana. The plants were three years old at the time of treatment. A CO2 sprayer was used to spray all treatments (100 mL/bunch) to bunches with 1 to 4 loose fruits. The time required to spray each bunch was about 8 seconds at 20 psi using a 2.0 full cone nozzle. The treatments were applied once per bunch. Four, six, four, three and ten bunches per treatment were sprayed on Feb. 6, 13, 20, 27 and Mar. 3, 2015, respectively.
Cumulative loose fruit (CLF) and cumulative loose mass (CLM) counts were determined on a daily basis for 14 days with the exception of days 2 and 9 after initial spray as measure to objectively quantify fruit abscission. An electronic balance was used to weigh all fruit. All loose fruit on the bunch, branches and on the ground was counted and weighted.

[3] = tested on: oil palm fruit; settings: postharvest application; cited from earlier work

Row | Compound | Increase of oil content [1] [%] | Cumulative Loose Mass ([2]; 20 ppm (2.4 g a.i./ha)) [g] | % Difference with UTC (Cumulative Loose Fruit) ([2]; 20 ppm (2.4 g a.i./ha)) [%] | % Difference with UTC (Cumulative Loose Mass) ([2]; 20 ppm (2.4 g a.i./ha)) [%] | Cumulative Loose Fruit ([2]; 20 ppm (2.4 g a.i./ha)) | Cumulative Loose Mass ([2]; 67 ppm (8.0 g a.i./ha)) [g] | % Difference with UTC (Cumulative Loose Fruit) ([2]; 67 ppm (8.0 g a.i./ha)) [%] | % Difference with UTC (Cumulative Loose Mass) ([2]; 67 ppm (8.0 g a.i./ha)) [%] | Cumulative Loose Fruit ([2]; 67 ppm (8.0 g a.i./ha)) | Cumulative Loose Mass ([2]; 200 ppm (23.8 g a.i./ha)) [g] | % Difference with UTC (Cumulative Loose Fruit) ([2]; 200 ppm (23.8 g a.i./ha)) [%] | % Difference with UTC (Cumulative Loose Mass) ([2]; 200 ppm (23.8 g a.i./ha)) | Cumulative Loose Fruit ([2]; 200 ppm (23.8 g a.i./ha)) | Effect on oil palm fruit drop ([2]; preharvest bunch spray, 20, 67 and 200 ppm) | Effect on oil content [3] | Effect on ripening of oil palm fruit [3]
1 | O=P(O)(O)CCCl [ethephon, 2-chloroethyl phosphonic acid] | 7 | – | – | – | – | – | – | – | – | – | – | – | – | – | – | –
2 | CC1=CC1 [1-MCP, 1-methylcyclopropene] | – | 1465 | 6.7 | 17.1 | 138.8 | 1163 | 28.6 | 34.2 | 106.2 | 1149 | 29.6 | 36.0% and 35.0% | 104.7 | delayed palm oil fruit drop | reduced oil content | delayed ripening
